# Laboratory results reported in patent publication US8598179B2, “Pyrazole-carboxamide derivatives as P2Y12 antagonists” (Sanofi, priority 2007, dated 2013).
# Test system: human platelet rich plasma (ADP-induced platelet aggregation)
# Assay: Inhibition of human platelet aggregation, "Born"-method (single cuvettes)
# Type: cell-based
# Settings: 0.1 h, aggregation induced by ADP, single use cuvettes, platelet aggregation profiler, 6 minutes at 37° C.
# Procedure: Inhibition of Human Platelet Aggregation
# Alternatively to a binding assay which measures a compound's ability to bind to the P2Y12 receptor, the effect on cellular function was also determined. This ability of the compound was evaluated in two platelet aggregation assays: in 96-well plates and with the “Born”-method using single cuvettes.
# Whole blood was collected from healthy volunteers using 20 ml syringes containing 2 ml of buffered Citrate. The anticoagulated whole blood was transferred into 15 ml polypropylene conical tubes (10 ml per tube). The tubes were centrifuged for 15 minutes at 340×g at RT without using the centrifuge brake. This procedure leads to a pellet of cellular components and a supernatant of platelet rich plasma (PRP). The PRP layer was collected from each tube and pooled for each donor. To avoid carry over of cellular components following centrifugation, approximately 5 ml of PRP was left in the tube. The platelet concentration was determined using a Coulter Counter.
# The 15 ml tubes containing the pellet of cellular components were centrifuged again for 10 minutes at 1940×g. This pelleted out most particulate blood constituents remaining, leaving a layer of Platelet Poor Plasma (PPP). The PPP was collected for each donor. The PRP layer, previously set aside, was diluted with PPP to a final concentration of approximately 3×E8 platelets/ml with the PPP.
# The human platelet aggregation assay is performed in single use cuvettes using the platelet aggregation profiler (PAP-4 or -8, Bio/Data corporation).
# In the assay cuvette 4 μl of test compound at 100× final concentration in DMSO is mixed with 392 μl fresh PRP and incubated for 2 minutes at 37° C. with 1.200 rpm stirring. Following that incubation period, 4 μl of 250 μM ADP is added to the reaction mix. […] After that aggregation is measured over 6 minutes at 37° C. with 1.200 rpm stirring. Results of the assay are expressed as % inhibition, and are calculated using maximum aggregation (Tmax) or area under curve (AUC) of the absorbance over 6 minutes. […]
row,SMILES,IC50 [nM]
1,"CCOC(=O)N1CCN(C(=O)[C@H](CCC(=O)O)NC(=O)c2cc(OC3(C(=O)OCC)CCC3)n(-c3ccccc3)n2)CC1 [Example 1, 4-((S)-4-Carboxy-2-{[5-(1-ethoxycarbonyl-cyclobutoxy)-1-phenyl-1H-pyrazole-3-carbonyl]-amino}-butyryl)-piperazine-1-carboxylic acid ethyl ester]",2930
2,"CCOC(=O)COc1cc(C(=O)N[C@@H](CCC(=O)O)C(=O)N2CCN(C(=O)OCC)CC2)nn1-c1ccccc1 [Example 5, 4-{(S)-4-Carboxy-2-[(5-ethoxycarbonylmethoxy-1-phenyl-1H-pyrazole-3-carbonyl)-amino]-butyryl}-piperazine-1-carboxylic acid ethyl ester]",2480
3,"CCOC(=O)N1CCN(C(=O)[C@H](CCC(=O)O)NC(=O)c2cc(OCC(=O)C(C)(C)C)n(-c3ccccc3)n2)CC1 [Example 80, 4-((S)-4-Carboxy-2-{[5-(3,3-dimethyl-2-oxo-butoxy)-1-phenyl-1H-pyrazole-3-carbonyl]-amino}-butyryl)-piperazine-1-carboxylic acid ethyl ester]",2460
